Legend:
[1] = target: T1, CDK4/cyclin D3 (Homo sapiens, UniProt P11802); experiment: Human CDK4/cyclin D3 inhibitory activity (QS S Assist CDK4/Cyclin D3_FP Kit, IMAP fluorescent polarization); type: biochemical; conditions: read-out: CDK4 Activity symbol
T1 construct: purchased Carna Biosciences, Inc. QS S Assist CDK4/Cyclin D3_FP Kit
Protocol: Human CDK4/Cyclin D3 Inhibitory Activity
(§1) Each compound was analyzed for CDK4/cyclin D3 inhibitory activity with an assay kit (QS S Assist CDK4/Cyclin D3_FP Kit, available from Carna Biosciences, Inc.). This assay kit determines kinase activity on the basis of the IMAP technology by Molecular Devices. Specifically, the kinase activity is determined through quantification of a variation in fluorescent polarization caused by binding of a kinase-phosphorylated fluorescent substance to an IMAP-binding reagent.
Each solution was prepared with the 10× assay buffer attached to the kit or a separately prepared assay buffer having the same composition as the assay buffer attached to the kit. An assay buffer was prepared by 10-fold dilution of the 10× assay buffer with distilled water. The assay buffer contains 20 mM HEPES (pH 7.4), 0.01% Tween20, and 2 mM dithiothreitol. A test compound solution was prepared by dilution of the test compound with dimethyl sulfoxide (DMSO) to a concentration 100 times higher than the final concentration and then 25-fold dilution with the assay buffer to a concentration four times higher than the final concentration. An ATP/substrate/Metal solution was prepared by five-fold dilution of the 5×ATP/substrate/Metal solution attached to the kit with the assay buffer. An enzyme solution was prepared by dilution of the CDK4/cyclin D3 attached to the kit with the assay buffer to a concentration twice higher than the final concentration (final concentration of CDK4/cyclin D3: 12.5 to 25 ng/well). A detection reagent was prepared by five-fold dilution of each of 5×IMAP-binding buffer A and 5×IMAP-binding buffer B with distilled water, mixing of IMAP-binding buffer A with IMAP-binding buffer B at a ratio of 85:15, and 400-fold dilution of the IMAP-binding reagent with the mixed buffer.
(§2) The test compound solution (5 μL/well) and the ATP/substrate/Metal solution (5 μL/well) were added to a 384-well plate, and the enzyme solution or the assay buffer (10 μL/well) was added to the plate (total amount of the reaction mixture: 20 μL/well) for initiation of enzymatic reaction. […] The reaction was performed at room temperature for 45 minutes, and the detection reagent (60 μL/well) was then added to the plate, followed by further reaction for 30 minutes at room temperature under light shielding conditions. Subsequently, fluorescent polarization was determined with a microplate reader at an excitation wavelength of 485 nm and an emission wavelength of 535 nm.
(§3) The percent inhibition of enzyme activity was calculated for each test compound (note: enzyme activity=100% in the case of addition of the enzyme solution and addition of DMSO instead of the test compound solution, whereas enzyme activity […] in the case of addition of the assay buffer instead of the enzyme solution, and addition of DMSO instead of the test compound solution). The percent inhibition of enzyme activity was fitted to a dose-response curve, to determine a 50% inhibitory concentration against CDK4/cyclin D3.
In each table, “+++” corresponds to IC50<10 nM. “++” 10 nM […] IC50<100 nM, and “+” 100 nM≤IC50.

[2] = target: T2, CDK2/cyclin A2 (Homo sapiens, UniProt P24941); experiment: Human CDK2/cyclin A2 inhibitory activity (QS S Assist CDK2/Cyclin A2_FP Kit, IMAP fluorescent polarization); type: biochemical; conditions: read-out: CDK2 Activity symbol
T2 construct: purchased Carna Biosciences, Inc. QS S Assist CDK2/Cyclin A2_FP Kit
Protocol: Human CDK2/Cyclin A2 Inhibitory Activity
as §1, with “CDK2/cyclin A2” for “CDK4/cyclin D3”, “CDK2/Cyclin A2_FP” for “CDK4/Cyclin D3_FP”
An assay buffer was prepared by 10-fold dilution of the 10× assay buffer attached to the kit with distilled water, and each solution was prepared with the assay buffer. The assay buffer contained 20 mM HEPES (pH 7.4), 0.01% Tween 20, and 2 mM dithiothreitol. A test compound solution was prepared by dilution of the test compound with dimethyl sulfoxide (DMSO) to a concentration 100 times higher than the final concentration and then 25-fold dilution with the assay buffer to a concentration four times higher than the final concentration. An ATP/substrate/Metal solution was prepared by five-fold dilution of the 5×ATP/substrate/Metal solution attached to the kit with the assay buffer. An enzyme solution was prepared by dilution of the CDK2/cyclin A2 attached to the kit with the assay buffer to a concentration twice higher than the final concentration (final concentration of CDK2/cyclin A2: 2.5 ng/well). A detection reagent was prepared by five-fold dilution of 5×IMAP-binding buffer A with distilled water and 400-fold dilution of the IMAP-binding reagent with the diluted buffer.
as §2, with “60” for “45”
as §3, with “enzyme solution” for “enzyme solution,”, “against CDK2/cyclin A2.” for “against CDK4/cyclin D3.”
In each table, “+++” corresponds to IC50<10 nM, “++” 10 nM≤IC50<100 nM, and “+” 100 nM≤IC50.

T1 sequence (P11802 whole entry): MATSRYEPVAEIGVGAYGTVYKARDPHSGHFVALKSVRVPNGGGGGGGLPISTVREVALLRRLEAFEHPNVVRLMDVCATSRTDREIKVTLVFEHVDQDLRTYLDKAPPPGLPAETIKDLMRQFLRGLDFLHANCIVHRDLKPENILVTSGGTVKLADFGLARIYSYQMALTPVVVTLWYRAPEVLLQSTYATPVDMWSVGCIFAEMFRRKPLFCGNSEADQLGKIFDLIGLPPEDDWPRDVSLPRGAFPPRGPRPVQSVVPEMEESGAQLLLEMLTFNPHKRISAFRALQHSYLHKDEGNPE
T1 sequence (P30281 whole entry partner): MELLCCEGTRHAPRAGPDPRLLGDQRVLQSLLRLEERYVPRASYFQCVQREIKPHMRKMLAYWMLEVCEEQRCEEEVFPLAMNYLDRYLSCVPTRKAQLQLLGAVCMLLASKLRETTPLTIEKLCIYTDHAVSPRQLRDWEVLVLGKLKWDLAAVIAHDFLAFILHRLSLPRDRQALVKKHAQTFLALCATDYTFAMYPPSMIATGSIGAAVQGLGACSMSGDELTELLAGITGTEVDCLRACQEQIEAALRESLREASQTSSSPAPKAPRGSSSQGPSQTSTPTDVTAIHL

| Compound | IC50 [1] | IC50 [2] |
| --- | --- | --- |
| C[C@@H](O)c1cc2cnc(Nc3ccc(CN4CCNCC4)cn3)nc2c(N2CCCC2C(=O)O)n1 (stereo partly drawn) [Compound 42] | ≥ 100 nM | ≥ 100 nM |
| C[C@@H](O)c1cc2cnc(Nc3ccc(CN4CCN(CCO)CC4)cn3)nc2c(N2CCC2)n1 [Compound 47] | 10 to 100 nM | ≥ 100 nM |
| C[C@@H](O)c1cc2cnc(Nc3ccc(CN4CCN(CCO)CC4)cn3)nc2c(N2CCCC2)n1 [Compound 48] | < 10 nM | ≥ 100 nM |
| C[C@@H](O)c1cc2cnc(Nc3ccc(CN4CCN(CCO)CC4)cn3)nc2c(N2CCCCC2)n1 [Compound 49] | < 10 nM | ≥ 100 nM |
| C[C@@H](O)c1cc2cnc(Nc3ccc(N4CCNCC4=O)cn3)nc2c(N2CCC2)n1 [Compound 50] | 10 to 100 nM | ≥ 100 nM |
| C[C@@H](O)c1cc2cnc(Nc3ccc(N4CCNCC4=O)cn3)nc2c(N2CCCC2)n1 [Compound 51] | < 10 nM | ≥ 100 nM |
| C[C@@H](O)c1cc2cnc(Nc3ccc(N4CCNCC4=O)cn3)nc2c(N2CCCCC2)n1 [Compound 52] | < 10 nM | ≥ 100 nM |
| Cc1nc(Nc2ncc3cc([C@@H](C)O)nc(N4CCCC4)c3n2)ccc1N1CCN(C)CC1 [Compound 53] | < 10 nM | ≥ 100 nM |
| Cc1nc(Nc2ncc3cc([C@@H](C)O)nc(N4CCCCC4)c3n2)ccc1N1CCN(C)CC1 [Compound 54] | < 10 nM | ≥ 100 nM |
| C[C@@H](O)c1cc2cnc(Nc3ccc(CN4CCN(C)CC4)cn3)nc2c(N2CCCC2)n1 [Compound 55] | < 10 nM | ≥ 100 nM |
| C[C@@H](O)c1cc2cnc(Nc3ccc(CN4CCN(C)CC4)cn3)nc2c(N2CCCCC2)n1 [Compound 56] | < 10 nM | ≥ 100 nM |
| C[C@@H](O)c1cc2cnc(Nc3ccc(CN4CCN(CCO)CC4)cn3)nc2c(N2CC3(CCC3)C2)n1 [Compound 57] | < 10 nM | ≥ 100 nM |
| C[C@@H](O)c1cc2cnc(Nc3ccc(CN4CCN(CCO)CC4)cn3)nc2c(N2CCOCC2)n1 [Compound 58] | 10 to 100 nM | ≥ 100 nM |
| C[C@@H](O)c1cc2cnc(Nc3ccc(CN4CCN(CCO)CC4)cn3)nc2c(N2CCCCCC2)n1 [Compound 59] | < 10 nM | ≥ 100 nM |
| C[C@@H](O)c1cc2cnc(Nc3ccc4c(n3)CCN(CCN(C)C)C4)nc2c(N2CCCCC2)n1 [Compound 60] | < 10 nM | ≥ 100 nM |
| C[C@@H](O)c1cc2cnc(Nc3ccc4c(n3)CCN(CCN(C)C)C4)nc2c(N2CCC(F)CC2)n1 [Compound 61] | < 10 nM | ≥ 100 nM |
| C[C@@H](O)c1cc2cnc(Nc3ccc4c(n3)CCNC4)nc2c(N2CCCCC2)n1 [Compound 62] | < 10 nM | ≥ 100 nM |
| C[C@@H](O)c1cc2cnc(Nc3ccc4c(n3)CCNC4)nc2c(N2CCC(F)CC2)n1 [Compound 63] | < 10 nM | ≥ 100 nM |
| C[C@@H](O)c1cc2cnc(Nc3ccc(N4CCNCC4=O)cn3)nc2c(N2CCC(F)(F)CC2)n1 [Compound 64] | < 10 nM | ≥ 100 nM |
| C[C@@H](O)c1cc2cnc(Nc3ccc(CN4CCC(O)CC4)cn3)nc2c(N2CCCCC2)n1 [Compound 65] | < 10 nM | ≥ 100 nM |

| Compound | IC50 [1] | IC50 [2] |
| --- | --- | --- |
| C[C@@H](O)c1cc2cnc(Nc3ccc(CN4CCC(O)CC4)cn3)nc2c(N2CCCC2)n1 [Compound 66] | 10 to 100 nM | ≥ 100 nM |
| C[C@@H](O)c1cc2cnc(Nc3ccc(CN4CCC(O)CC4)cn3)nc2c(N2CCOCC2)n1 [Compound 67] | 10 to 100 nM | ≥ 100 nM |
| C[C@@H](O)c1cc2cnc(Nc3ccc(CN4CCC(CO)CC4)cn3)nc2c(N2CCCCC2)n1 [Compound 68] | < 10 nM | ≥ 100 nM |
| C[C@@H](O)c1cc2cnc(Nc3ccc(CN4CCC(CO)CC4)cn3)nc2c(N2CCCC2)n1 [Compound 69] | < 10 nM | ≥ 100 nM |
| C[C@@H](O)c1cc2cnc(Nc3ccc(CN4CCC(CO)CC4)cn3)nc2c(N2CCOCC2)n1 [Compound 70] | 10 to 100 nM | ≥ 100 nM |
| C[C@@H](O)c1cc2cnc(Nc3ccc(N4CCN(C)CC4=O)cn3)nc2c(N2CCCCC2)n1 [Compound 72] | < 10 nM | ≥ 100 nM |
| C[C@@H](O)c1cc2cnc(Nc3ccc(N4CCN(C)CC4=O)cn3)nc2c(N2CCCC2)n1 [Compound 73] | 10 to 100 nM | ≥ 100 nM |
| C[C@@H](O)c1cc2cnc(Nc3ccc(N4CCN(C)CC4=O)cn3)nc2c(N2CCOCC2)n1 [Compound 74] | 10 to 100 nM | ≥ 100 nM |
| C[C@@H](O)c1cc2cnc(Nc3ccc(CN4CCN(CCO)CC4)cn3)nc2c(N2CCCC2(C)C)n1 [Compound 75] | < 10 nM | 10 to 100 nM |
| C[C@@H](O)c1cc2cnc(Nc3ccc(CN4CCN(CCO)CC4)cn3)nc2c(N2CCC(C(=O)O)CC2)n1 [Compound 76] | < 10 nM | ≥ 100 nM |
| C[C@@H](O)c1cc2cnc(Nc3ccc(CN4CCN(CCO)CC4)cn3)nc2c(N2CCN(C)CC2)n1 [Compound 77] | 10 to 100 nM | ≥ 100 nM |
| C[C@@H](O)c1cc2cnc(Nc3ccc(CN4CCN(CCO)CC4)cn3)nc2c(N2CCC(F)CC2)n1 [Compound 78] | < 10 nM | ≥ 100 nM |
| C[C@@H](O)c1cc2cnc(Nc3ccc(CN4CCN(CCO)CC4)cn3)nc2c(N2CCC(F)(F)CC2)n1 [Compound 79] | < 10 nM | ≥ 100 nM |
| C[C@@H](O)c1cc2cnc(Nc3ccc4c(n3)CCNC4)nc2c(N2CCC(F)(F)CC2)n1 [Compound 80] | < 10 nM | ≥ 100 nM |
| C[C@@H](O)c1cc2cnc(Nc3ccc4c(n3)CCN(CCO)C4)nc2c(N2CCC(F)(F)CC2)n1 [Compound 81] | < 10 nM | ≥ 100 nM |
| C[C@@H](O)c1cc2cnc(Nc3ccc4c(n3)CCN(CCN(C)C)C4)nc2c(N2CCC(F)(F)CC2)n1 [Compound 82] | < 10 nM | ≥ 100 nM |
| CC(O)c1cc2cnc(Nc3ccc(CN4CCN(CCO)CC4)cn3)nc2c(N2CCCC2C)n1 (stereo not drawn) [Compound 83] | < 10 nM | 10 to 100 nM |
| C[C@@H](O)c1cc2cnc(Nc3ccc(CN4CCN(CCO)CC4)cn3)nc2c(N2CCC(C(F)(F)F)CC2)n1 [Compound 84] | < 10 nM | ≥ 100 nM |
| C[C@@H](O)c1cc2cnc(Nc3ccc(CN4CCN(CCO)CC4)cn3)nc2c(N2CCS(=O)(=O)CC2)n1 [Compound 85] | 10 to 100 nM | ≥ 100 nM |
